Literature values in patent US20150209310A1, “NACA FOR THE TREATMENT OF CHRONIC OR LOW IMPACT BRAIN TRAUMA” (Brighton Biotech, Inc., priority 2014, published 2015).

Details: background statement

CC(=O)N[C@@H](CS)C(=O)O [NAC, N-acetyl-L-cysteine]
crossing of the blood-brain barrier: inability to cross the blood-brain barrier
